Source: patent publication US4001414A, “1,3,4-Trimethyl-2-(3,4,5-trimethoxybenzyl)-1,2,5,6-tetrahydropyridine and analgesic composition and method using it” (priority 1974, dated 1977)

Assays:
[1] = tested on: acetic acid-induced writhing; test: Analgesic activity, acetic acid-induced writhing technique; assay type: in vivo, albino I.C.R. Swiss mice; conditions: for No. of writhes (x ± M.S.E.): acetic acid 0.25 ml of 1% i.p. after 30 minutes, writhes counted in 20 minutes, p <0.001, control 112.2 ± 4.2, average value ± mean standard error; for analgesic activity (in words): as may be seen from Table B, mice
Method: The analgesic activity was investigated in albino I.C.R. Swiss mice, using the acetic acid-induced writhing technique. Groups each of 10 mice were assembled.
The analgesics were injected intraperitoneally, and after 30 minutes 0.25 ml of a 1% solution of acetic acid was injected intraperitoneally. A control group received only acetic acid. The numbers of writhes made by each mouse was counted in the 20 minutes following administration of the acetic acid.

[2] = Acute toxicity (LD50), i.p., method of Litchfield and Wilcoxon; conditions: mouse, in vivo, ip; I.C.R. Swiss mice, both sexes, 30 ± 2 g, intraperitoneal
Method: Acute toxicity studies were conducted in I.C.R. Swiss mice weighing 30 ± 2 g, of both sexes. The products were administered intraperitoneally (i.p.). The acute toxicity calculations were made by the method of Litchfield and Wilcoxon.

Row | Structure (SMILES) | No. of writhes (x ± M.S.E.) ([1]; 25 mg/kg i.p.) | No. of writhes (x ± M.S.E.) ([1]; 20 mg/kg i.p.) | analgesic activity (in words) ([1]; 20 mg/kg i.p.) | LD50 [2] [mg/kg]
1 | CCC(=O)O[C@](Cc1ccccc1)(c1ccccc1)[C@H](C)CN(C)C [Dextropropoxyphene, reference compound] | 22.8 ± 4.74 | – | – | –
2 | COc1cc(CC2C(C)=C(C)CCN2C)cc(OC)c1OC (stereo not drawn) [Product I, 1,3,4-trimethyl-2-(3,4,5-trimethoxybenzyl)-1,2,5,6-tetrahydropyridine] | – | 74.5 ± 4.84 | have analgesic activity | –
3 | COc1cc(C[N+]2(C)CCC(C)=C(C)C2)cc(OC)c1OC.[Cl-] (stereo not drawn) [Product II, 1,3,4-trimethyl-1-(3,4,5-trimethoxybenzyl)-1,2,5,6-tetrahydropyridinium chloride] | – | 53.6 ± 4.7 | have analgesic activity | 77
